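Tested at 5 concentrations; 48 h exposure; 96-well plates; endpoints linearly interpolated, else capped at highest concentration. The concentration for 50% growth inhibition is given as GI50.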 Activity calls are given as the source filed them. Rule as the data show it: active = GI50 up to about 1.1 µM and inactive = higher.
Tests used:
Assay in all cases: NCI-60 cell line screen, 48 h
OVCAR-8 = test system: OVCAR-8
CAKI-1 = test system: CAKI-1
COLO 205 = test system: COLO 205
NCI/ADR-RES = test system: NCI/ADR-RES
SK-MEL-2 = test system: SK-MEL-2
MCF7 = test system: MCF7
T47D = test system: T47D
PC-3 = test system: PC-3
LOX IMVI = test system: LOX IMVI
SK-MEL-5 = test system: SK-MEL-5
UACC-62 = test system: UACC-62
HCC 2998 = test system: HCC 2998
BT-549 = test system: BT-549
NCI-H460 = test system: NCI-H460
RPMI-8226 = test system: RPMI-8226
SNB-75 = test system: SNB-75
Hs-578T = test system: Hs-578T
ACHN = test system: ACHN
SK-MEL-28 = test system: SK-MEL-28
SR = test system: SR

Structure (SMILES) | GI50 (OVCAR-8) | GI50 (CAKI-1) | GI50 (COLO 205) | GI50 (NCI/ADR-RES) | GI50 (SK-MEL-2) | GI50 (MCF7) | GI50 (T47D) | GI50 (PC-3) | GI50 (LOX IMVI) | GI50 (SK-MEL-5) | GI50 (UACC-62) | GI50 (HCC 2998) | GI50 (BT-549) | GI50 (NCI-H460) | GI50 (RPMI-8226) | GI50 (SNB-75) | GI50 (Hs-578T) | GI50 (ACHN) | GI50 (SK-MEL-28) | GI50 (SR)
Cc1cn(CCCCCCC2=NCCCN2)c(=O)[nH]c1=O | > 100 µM (inactive) | > 100 µM (inactive) | > 100 µM (inactive) | > 100 µM (inactive) | > 100 µM (inactive) | > 100 µM (inactive) | > 100 µM (inactive) | > 100 µM (inactive) | > 100 µM (inactive) | > 100 µM (inactive) | > 100 µM (inactive) | > 100 µM (inactive) | > 100 µM (inactive) | > 100 µM (inactive) | > 100 µM (inactive) | > 100 µM (inactive) | > 100 µM (inactive) | > 100 µM (inactive) | > 100 µM (inactive) | –
C=C1CCCC2[C@](C)(CC3=C(Cl)C(=O)C=C(OC)C3=O)C(C)CC[C@]12C (stereo partly specified) | 2.93 µM (inactive) | 3.39 µM (inactive) | 3.37 µM (inactive) | 3.99 µM (inactive) | 6.64 µM (inactive) | 1.49 µM (inactive) | – | 1.58 µM (inactive) | 1.38 µM (inactive) | 6.43 µM (inactive) | 6.4 µM (inactive) | 9.12 µM (inactive) | 5 µM (inactive) | 8.63 µM (inactive) | 1.63 µM (inactive) | – | 8.71 µM (inactive) | 4.66 µM (inactive) | 7.31 µM (inactive) | 1.47 µM (inactive)
COc1ccc(-[n+]2nc(S(=O)(=O)O)c(/C=C/c3ccc(N(C)C)cc3)cc2C#N)cc1 | > 100 µM (inactive) | > 100 µM (inactive) | > 100 µM (inactive) | > 100 µM (inactive) | > 100 µM (inactive) | > 100 µM (inactive) | > 100 µM (inactive) | > 100 µM (inactive) | > 100 µM (inactive) | > 100 µM (inactive) | > 100 µM (inactive) | > 100 µM (inactive) | > 100 µM (inactive) | – | > 100 µM (inactive) | > 100 µM (inactive) | > 100 µM (inactive) | > 100 µM (inactive) | > 100 µM (inactive) | –
COc1cc(O)c(C(=O)/C=C/c2ccc(O)cc2)cc1Oc1ccc(C(=O)/C=C/c2ccc(O)cc2)c(O)c1 [RHUSCHALCONE IV] | 2.59 µM (inactive) | 3.5 µM (inactive) | 1.88 µM (inactive) | 2.91 µM (inactive) | 3.36 µM (inactive) | 2.69 µM (inactive) | 2.29 µM (inactive) | 3.78 µM (inactive) | 3.4 µM (inactive) | 1.92 µM (inactive) | 2.33 µM (inactive) | – | 2.92 µM (inactive) | 2.88 µM (inactive) | 2.34 µM (inactive) | 4.21 µM (inactive) | 6.52 µM (inactive) | 2.4 µM (inactive) | 1.95 µM (inactive) | 2.38 µM (inactive)
C/C=C1\C(=O)OC2CCN3CCC(COC(=O)C(C)(O)C(C)C1O)C23 (stereo unspecified) | > 100 µM (inactive) | > 100 µM (inactive) | > 100 µM (inactive) | > 100 µM (inactive) | > 100 µM (inactive) | > 100 µM (inactive) | > 100 µM (inactive) | > 100 µM (inactive) | > 100 µM (inactive) | > 100 µM (inactive) | > 100 µM (inactive) | > 100 µM (inactive) | > 100 µM (inactive) | > 100 µM (inactive) | – | > 100 µM (inactive) | > 100 µM (inactive) | > 100 µM (inactive) | > 100 µM (inactive) | –
CC[C@@]1(O)C[C@H](OC2CC(N(C)C)C(OC3CC(O)C(OC4CCC(=O)C(C)O4)C(C)O3)C(C)O2)c2c(cc3c(c2O)C(=O)c2c(O)ccc(O)c2C3=O)[C@H]1C(=O)OC (stereo partly specified) | 0.00233 µM (active) | < 1e-05 µM (active) | 7.55e-05 µM (active) | – | 7.87e-05 µM (active) | – | 0.000773 µM (active) | 0.000395 µM (active) | 2e-05 µM (active) | 0.000535 µM (active) | 0.00341 µM (active) | – | 0.00113 µM (active) | 2.33e-05 µM (active) | 7.83e-05 µM (active) | 0.000105 µM (active) | 0.00366 µM (active) | 5.36e-05 µM (active) | 0.000343 µM (active) | 0.000101 µM (active)
O=C1c2ccccc2-c2c1c(-c1cccc(Br)c1)nc1ccc3ccccc3c21 | > 100 µM (inactive) | > 100 µM (inactive) | > 100 µM (inactive) | > 100 µM (inactive) | > 100 µM (inactive) | > 100 µM (inactive) | > 100 µM (inactive) | > 100 µM (inactive) | > 100 µM (inactive) | – | > 100 µM (inactive) | > 100 µM (inactive) | > 100 µM (inactive) | > 100 µM (inactive) | > 100 µM (inactive) | > 100 µM (inactive) | 46.9 µM (inactive) | > 100 µM (inactive) | > 100 µM (inactive) | –
[O-][S+](c1ccc(Cl)cc1)c1ccccc1C1=NCCN1 (stereo unspecified) | > 100 µM (inactive) | > 100 µM (inactive) | > 100 µM (inactive) | > 100 µM (inactive) | > 100 µM (inactive) | > 100 µM (inactive) | > 100 µM (inactive) | > 100 µM (inactive) | – | > 100 µM (inactive) | > 100 µM (inactive) | > 100 µM (inactive) | > 100 µM (inactive) | > 100 µM (inactive) | > 100 µM (inactive) | > 100 µM (inactive) | > 100 µM (inactive) | > 100 µM (inactive) | > 100 µM (inactive) | –
COC(=O)[C@H](CC(C)C)NC1=C(Cl)C(=O)c2c(O)ccc(O)c2C1=O | > 10 µM (inactive) | > 10 µM (inactive) | 4.34 µM (inactive) | > 10 µM (inactive) | > 10 µM (inactive) | – | > 10 µM (inactive) | > 10 µM (inactive) | 1.8 µM (inactive) | > 10 µM (inactive) | > 10 µM (inactive) | > 10 µM (inactive) | > 10 µM (inactive) | > 10 µM (inactive) | 4.81 µM (inactive) | > 10 µM (inactive) | > 10 µM (inactive) | > 10 µM (inactive) | > 10 µM (inactive) | > 10 µM (inactive)
CCOC(=O)c1ccc2c(c1)Cc1cc([N+](=O)[O-])ccc1-2 | 42 µM (inactive) | 36.6 µM (inactive) | 23.2 µM (inactive) | 25.1 µM (inactive) | – | 19.3 µM (inactive) | 87.1 µM (inactive) | 61.9 µM (inactive) | 41.2 µM (inactive) | 17.3 µM (inactive) | 50 µM (inactive) | – | 30.1 µM (inactive) | 50.9 µM (inactive) | 41.7 µM (inactive) | – | 48.9 µM (inactive) | 29.9 µM (inactive) | 43 µM (inactive) | –
COc1ccc(C(=O)/C=C/c2ccncc2)cc1OC | 15.3 µM (inactive) | 15.7 µM (inactive) | 15.5 µM (inactive) | 19.7 µM (inactive) | 16.7 µM (inactive) | 3.74 µM (inactive) | 12.6 µM (inactive) | 16.7 µM (inactive) | 1.47 µM (inactive) | 16.4 µM (inactive) | 15.5 µM (inactive) | – | 6.22 µM (inactive) | – | – | 13.5 µM (inactive) | 13.7 µM (inactive) | 14.9 µM (inactive) | 17.3 µM (inactive) | 6.49 µM (inactive)
COc1ccc(-c2nc(-c3cc4c(ccc5ccccc54)oc3=O)cs2)cc1 | – | > 100 µM (inactive) | > 100 µM (inactive) | – | > 100 µM (inactive) | > 100 µM (inactive) | > 100 µM (inactive) | > 100 µM (inactive) | > 100 µM (inactive) | > 100 µM (inactive) | > 100 µM (inactive) | > 100 µM (inactive) | > 100 µM (inactive) | > 100 µM (inactive) | > 100 µM (inactive) | 66.5 µM (inactive) | > 100 µM (inactive) | > 100 µM (inactive) | > 100 µM (inactive) | > 100 µM (inactive)
Cc1cc2c(=O)[nH]nc(N)c2c(N)n1 | > 100 µM (inactive) | > 100 µM (inactive) | > 100 µM (inactive) | > 100 µM (inactive) | > 100 µM (inactive) | > 100 µM (inactive) | > 100 µM (inactive) | > 100 µM (inactive) | > 100 µM (inactive) | > 100 µM (inactive) | > 100 µM (inactive) | > 100 µM (inactive) | > 100 µM (inactive) | > 100 µM (inactive) | > 100 µM (inactive) | – | > 100 µM (inactive) | > 100 µM (inactive) | > 100 µM (inactive) | > 100 µM (inactive)
COC(=O)C1=C(C)NC(C)=C(C(=O)OC)C1c1ccccc1NO | > 100 µM (inactive) | > 100 µM (inactive) | > 100 µM (inactive) | > 100 µM (inactive) | > 100 µM (inactive) | > 100 µM (inactive) | > 100 µM (inactive) | > 100 µM (inactive) | 40 µM (inactive) | > 100 µM (inactive) | > 100 µM (inactive) | > 100 µM (inactive) | > 100 µM (inactive) | > 100 µM (inactive) | 48.9 µM (inactive) | – | > 100 µM (inactive) | > 100 µM (inactive) | > 100 µM (inactive) | 28.4 µM (inactive)
C/C(=N\NC(=S)N1CCN(C)CC1)c1nc2cccnc2[nH]1 | > 100 µM (inactive) | > 100 µM (inactive) | > 100 µM (inactive) | > 100 µM (inactive) | – | 20.4 µM (inactive) | 52.1 µM (inactive) | > 100 µM (inactive) | > 100 µM (inactive) | > 100 µM (inactive) | > 100 µM (inactive) | > 100 µM (inactive) | 22.4 µM (inactive) | > 100 µM (inactive) | > 100 µM (inactive) | > 100 µM (inactive) | > 100 µM (inactive) | > 100 µM (inactive) | > 100 µM (inactive) | –

— ChEMBL document CHEMBL1201862, “PubChem BioAssay data set” (2004)
